Measured values: US11603391B2, “CATH2 derivatives” (Universiteit Utrecht Holding B.V., priority 2014, dated 2023)
No end group written: not given here.

Tests used:
[1] = system: HD11 cells; test: Uptake of Alexa-Fluor 488 labeled ODN-2006 by HD11 cells (flow cytometry); assay type: cell-based, chicken; conditions: 5 μM peptide; 2.5 nM Alexa-Fluor 488 labeled ODN-2006; 4 h
Protocol: (§1) FIG. 13A-13B—CMAP27 derived peptides enhance DNA uptake and DNA-induced activation. A) HD11 cells were stimulated during 4 h with 2.5 nM Alexa-Fluor 488 labeled ODN-2006 in the absence and presence of CMAP27 derived peptides (5 μM), after which DNA uptake was analyzed by flow cytometry. B) Supernatants of HD11 cells stimulated for longer time (17 h) under these same conditions were collected and used for determination of nitric oxide production using the Griess assay. Data represents means±SEM from 3-4 independent experiments.
(§2) To study effects of peptides on the uptake of DNA, HD11 cells were seeded 3×10^5 cells in 24-wells plates, stimulated during 4 h with 2.5 nM Alexa-Fluor 488 labeled ODN-2006 in the absence and presence of CMAP27 derived peptides (5 μM), after which DNA uptake was analyzed by flow cytometry. Activation of HD11 cells was examined by collecting supernatants after 17 h under the same conditions and determination of nitric oxide production.

[2] = system: HD11 cells; test: Neutralization of LPS-induced interleukin-1β transcription in HD11 cells (real time PCR); assay type: cell-based, chicken; conditions: 20 μM peptide pre-incubated with 50 ng/ml LPS; 4 h
Protocol: (§3) FIG. 11A-11B—Neutralization of lipopolysaccharide-induced interleukin-1β induction and nitric oxide production in HD11 cells by CMAP27 derived peptides. HD11 cells were seeded in 96 wells tissue culture treated plates (2×10^5 cell/mL) in RPMI-1640/10% FCS. Final concentrations of 50 ng/ml LPS were pre-incubated with or without 20 μM peptide for 30 min at 37° C. (5% CO2), applied to the cells and incubated for 4 h and 24 h. A) Transcription levels of interleukin-1 were determined by real time PCR (4 h only). B) Supernatants were collected for the determination of nitric oxide production (24 h incubations only) using the Griess assay. Significance levels: *P<0.05, **P<0.01, ***P<0.001. Data represents means±SEM from 3-4 independent experiments.
as §3, with “FIG. 12A-12B—Substitution” for “FIG. 11A-11B—Neutralization”, “of phenylalanine residues by tryptophan enhances the” for “of lipopolysaccharide-induced interleukin-1β induction and nitric oxide production”, “in vitro LPS neutralization capacity of” for “in HD11 cells by”, “h or” for “h and”
(§4) HD11 cells were seeded in 96 wells tissue culture treated plates (2×10^5 cell/mL) in RPMI-1640/10% FCS. Final concentrations of 50 ng/ml Salmonella minnesota LPS were pre-incubated with or without 20 μM peptide for 30 min at 37° C. (5% CO2), applied to the cells and incubated for 4 h and 24 h. A) Transcription levels of interleukin-1 were determined by real time PCR (4 h only). B) Supernatants were collected for the determination of nitric oxide production (24 h incubations only) using the Griess assay.

[3] = system: avian pathogenic Escherichia coli O78 (APEC O78) field isolate; test: Antibacterial colony count assay in DMEM containing 10% fetal calf serum; assay type: cell-based; conditions: 5 μM peptide, 3×10^5 CFU/ml, 2 h at 37° C., DMEM/10% FCS
Protocol: (§5) FIG. 9A-9C—Antibacterial activity of CMAP27 derived peptides in vitro against an avian pathogenic Escherichia coli O78 (APEC O78) field isolate. A) Antibacterial activity of peptides (5 μM) against APEC O78 (2×10^6 CFU/ml) in 50% Mueller Hinton broth using colony count assays. B) Antibacterial activity of peptides (5 μM) against APEC O78 (3×10^5 CFU/ml) in DMEM containing 10% fetal calf serum (FCS) using colony count assays. C) TNFα production by J774.A1 cells (ELISA) after 2 h incubation at 37° C. with live or heat-killed APEC O78 (3×10^5 CFU/m) in DMEM/10% FCS, in the presence or absence of 5 μM peptide. Data represents means±SEM from 3 independent experiments.
To test if peptides would be able to inhibit bacteria under more challenging conditions, e.g. in the presence of salts and serum proteins, APEC O78 was incubated with peptide in DMEM medium containing 10% fetal calf serum. In brief, bacterial survival was estimated by incubating 3×10^5 CFU/ml APEC O78 during 2 h at 37° C. in DMEM/10% FCS in the presence or absence of 5 μM peptide, after which serial dilutions were made, spread on agar media and colonies were enumerated after 24 h incubation at 37° C.

[4] = system: J774.A1 cells; test: Inhibition of APEC O78-induced TNFα production by macrophages (ELISA); assay type: cell-based, murine; conditions: 5 μM peptide, 2 h, DMEM/10% FCS; for inhibition of TNFα production induced by heat-killed bacteria: 3×10^5 CFU/ml heat-killed APEC O78; for inhibition of TNFα production induced by live bacteria: 3×10^5 CFU/ml live APEC O78
Protocol: as §5
Peptide-mediated inhibition of macrophage activation induced by live or heat-killed APEC O78, was examined using J774.A1 cells, a murine macrophage cell line. For this purpose, J774.A1 cells (150,000 cells/well) cultured in DMEM containing 10% FCS were exposed during 2 h at 37° C. to 3×10^5 CFU/ml APEC O78 with or without 5 μM peptide, after which supernatants were collected and used to determine TNFα production (ELISA).

[5] = system: HD11 cells; test: DNA-induced nitric oxide production in HD11 cells (Griess assay); assay type: cell-based, chicken; conditions: 5 μM peptide; 2.5 nM ODN-2006; 17 h
Protocol: as §1, §2

[6] = system: HD11 cells; test: Chemokine induction in HD11 cells (real time PCR); assay type: cell-based, chicken; conditions: 20 μM peptide
Protocol: FIG. 10—Chemokine induction by CMAP27 derived peptides in HD11 cells. HD11 cells were seeded in 96 wells tissue culture treated plates (2×10^5 cell/mL) in RPMI-1640/10% FCS and incubated at 37° C. (5% CO2) with peptide (20 μM) supplemented medium during 4 h (open bars) or 24 h (closed bars). Transcription levels of interleukin-1β, IL-8 (CXCLi2), monocyte chemotactic protein-3 (MCP-3) and RANTES (CCLi4) were determined by real time PCR. Significance levels: *P<0.05, **P<0.01, ***P<0.001. Data represents means±SEM from 3-4 independent experiments.
HD11 cells, a chicken macrophage cell line, were seeded in 96 wells tissue culture treated plates (2×10^5 cell/mL) in RPMI-1640/10% FCS and incubated at 37° C. (5% CO2) with peptide (20 μM) supplemented medium during 4 h or 24 h. Transcription levels of interleukin-1β, -8 (CXCLi2), monocyte chemotactic protein-3 (MCP-3) and RANTES (CCLi4) were determined by real time PCR.

[7] = system: HD11 cells; test: Neutralization of LPS-induced nitric oxide production in HD11 cells (Griess assay); assay type: cell-based, chicken; conditions: 20 μM peptide pre-incubated with 50 ng/ml LPS; 24 h
Protocol: as §3
as §3, with “FIG. 12A-12B—Substitution” for “FIG. 11A-11B—Neutralization”, “of phenylalanine residues by tryptophan enhances the” for “of lipopolysaccharide-induced interleukin-1β induction and nitric oxide production”, “in vitro LPS neutralization capacity of” for “in HD11 cells by”, “h or” for “h and”
as §4

| Substance | uptake of ODN-2006 by HD11 cells [1] | LPS-neutralizing activity (block of LPS-induced IL-1β expression, in words) [2] | inhibition of bacterial growth (antibacterial activity, in words) [3] | inhibition of TNFα production induced by heat-killed bacteria [4] | DNA-induced nitric oxide production [5] | induction of CXCLi2/IL-8 transcription ([6]; 4 h or 24 h) | induction of MCP-3 transcription ([6]; 4 h or 24 h) | LPS-induced NO production blocked [7] [%] | LPS-induced IL-1β expression blocked [2] [%] | surviving bacteria ([3]; detection limit) [cells/ml] | inhibition of TNFα production induced by live bacteria [4] | induction of proinflammatory cytokine IL-1β transcription ([6]; 4 h or 24 h) | induction of CCLi4/RANTES transcription ([6]; prolonged stimulation (24 h) needed) |
| --- | --- | --- | --- | --- | --- | --- | --- | --- | --- | --- | --- | --- | --- |
| CMAP7-21-NH2: N-terminally truncated variant of CMAP1-21, 15 amino acid residues (RKIRRFRPKVTITIQ-NH2) | enhanced the uptake | lack LPS-neutralizing activity | lacking antibacterial activity | inhibited to some extent | increasing | maintained a capacity to induce | maintained a capacity to induce |  |  |  |  |  |  |
| RFGRFLRKIRRFRPKVTITIQGSARF-NH2 [CMAP1-26-NH2] | enhanced the uptake |  | substantially inhibited | substantially inhibited | increasing | induce transcription | induce transcription | 96.2 | 90.8 | < 100 | substantially inhibited | not induced | induce transcription |
| CMAP4-21-NH2: N-terminally truncated variant of CMAP1-21 (RFLRKIRRFRPKVTITIQ-NH2) | enhanced the uptake |  | substantially inhibited |  | increasing |  |  | 51 | 80.5 |  |  |  |  |
| CMAP1-21-NH2: C-terminally truncated CMAP27 derivative, residues 1-21 | enhanced the uptake |  | substantially inhibited | substantially inhibited | increasing |  |  | 78.9 | 93.5 |  | substantially inhibited |  |  |
